# According to patent publication US12240840B2, “Amide-substituted heterocyclic compounds for the treatment of conditions related to the modulation of IL-12, IL-23 and/or IFN-alpha” (BRISTOL-MYERS SQUIBB COMPANY, priority 2018, dated 2025):
# Test system: IFNα-induced pSTAT5 (pY694) in CD3 positive cells of human whole blood
# Assay: IFNα-Induced STAT Phosphorylation in Human Whole Blood
# Format: cell-based
# Settings: Homo sapiens, 1 h compound incubation, 1000 U/mL recombinant human IFNα A/D for 15 min, pSTAT5 in CD3 positive population, read-out: Human WB IFNα-Induced Stat Phosph. (IC50)
# Method: IFNα-Induced STAT Phosphorylation in Human Whole Blood
# After an hour long incubation with compound, human whole blood (drawn with either EDTA or ACD-A as anti-coagulant) was stimulated with 1000 U/mL recombinant human IFNα A/D (R&D Systems 11200-2) for 15 min. The stimulation was stopped by adding Fix/Lyse buffer (BD 558049). Cells were stained with a CD3 FITC antibody (BD 555916), washed, and permeabilized on ice using Perm III buffer (BD 558050). Cells were then stained with an Alexa-Fluor 647 pSTAT5 (pY694) antibody (BD 612599) for 30 min prior to analysis on the FACS Canto II. The amount of pSTAT5 expression was quantitated by median fluorescence intensity after gating on the CD3 positive population.
# IFNα-Induced STAT Phosphorylation in Human Whole Blood Inhibition Data ND—no data available
row,Structure (SMILES),IC50 [nM]
1,[2H]C([2H])([2H])NC(=O)c1nnc(NC(=O)C2CC2)cc1Nc1cccc(-n2cc(CN3CCOCC3)nn2)c1OC [Example 2],650
2,[2H]C([2H])([2H])NC(=O)c1nnc(NC(=O)C2CC2)cc1Nc1cccc(-c2nc(CN3CCC(C)CC3)no2)c1OC [Example 211],440
3,[2H]C([2H])([2H])NC(=O)c1nnc(NC(=O)C2CC2)cc1Nc1cccc(-c2cnn(CC(=O)NCC(CC)CC)n2)c1OC [Example 428],2630
4,[2H]C([2H])([2H])NC(=O)c1nnc(NC(=O)C2CC2)cc1Nc1cccc(-c2ncc(CC(=O)NCCCN(C)C)s2)c1OC [Example 252],3270
5,[2H]C([2H])([2H])NC(=O)c1nnc(NC(=O)C2CC2)cc1Nc1cccc(-c2nc(C)c(C(=O)N3CCC3)s2)c1OC [Example 358],210
6,[2H]C([2H])([2H])NC(=O)c1cnc(NC(=O)C2CC2)cc1Nc1cccc(-c2nc(CN3C[C@@H](C)O[C@@H](C)C3)no2)c1OC [Example 210],220
7,COc1c(Nc2cc(NC(=O)C3CC3)ncc2C(N)=O)cccc1-c1cnn(CCNC(=O)CC#N)n1 [Example 446],270
8,[2H]C([2H])([2H])NC(=O)c1nnc(NC(=O)C2CC2)cc1Nc1cccc(-c2nc(CC(=O)NCCO)no2)c1OC [Example 177],1030
9,[2H]C([2H])([2H])NC(=O)c1nnc(NC(=O)C2CC2)cc1Nc1cccc(-c2nc(CN(CCOC)CCOC)no2)c1OC [Example 175],660
10,[2H]C([2H])([2H])NC(=O)c1nnc(NC(=O)C2CC2)cc1Nc1cccc(-c2cc(C(=O)N3CCC3)n(C)n2)c1OC [Example 538],390
11,[2H]C([2H])([2H])NC(=O)c1nnc(NC(=O)C2CC2)cc1Nc1cccc(-c2nc(CNC(=O)CN)no2)c1OC [Example 155],780
12,[2H]C([2H])([2H])NC(=O)c1nnc(NC(=O)C2CC2)cc1Nc1cccc(-c2nc(CN3CCN(C(=O)C=C)CC3)no2)c1OC [Example 129],260
13,[2H]C([2H])([2H])NC(=O)c1nnc(NC(=O)C2CC2)cc1Nc1cccc(-c2nc([C@@H](NC(C)=O)[C@@H](C)O)no2)c1OC [Example 187],1130
14,[2H]C([2H])([2H])NC(=O)c1nnc(NC(=O)C2CC2)cc1Nc1cccc(-c2ncc(CNC(=O)CC#N)s2)c1OC [Example 264],1550
15,[2H]C([2H])([2H])NC(=O)c1nnc(NC(=O)C2CC2)cc1Nc1cccc(-c2nc(CN3CCN(C(=O)CC#N)CC3=O)no2)c1OC [Example 139],410
16,[2H]C([2H])([2H])NC(=O)c1nnc(NC(=O)C2CC2)cc1Nc1cccc(-c2nc(C3(NC(=O)COC)CC3)no2)c1OC [Example 149],1950

row,Structure (SMILES),IC50 [nM]
1,[2H]C([2H])([2H])NC(=O)c1nnc(NC(=O)C2CC2)cc1Nc1cccc(-c2ncc(C(=O)N3CCN(S(=O)(=O)C=C)CC3)s2)c1OC [Example 241],620
2,[2H]C([2H])([2H])NC(=O)c1nnc(NC(=O)C2CC2)cc1Nc1cccc(-c2cnn(CCNC(=O)OC(C)(C)C)n2)c1OC [Example 431],> 10000
3,[2H]C([2H])([2H])NC(=O)c1cnc(NC(=O)C2CC2)cc1Nc1cccc(-c2nc(C(C)N3CCN(C(C)=O)CC3)no2)c1OC (stereo not drawn) [Example 222],1480
4,[2H]C([2H])([2H])NC(=O)c1nnc(NC(=O)C2CC2)cc1Nc1cc(F)cc(-c2ncc(C(=O)N(C)C)s2)c1OC [Example 277],240
5,[2H]C([2H])([2H])NC(=O)c1nnc(NC(=O)C2CC2)cc1Nc1cccc(-c2ncc(C(=O)N[C@H]3CN4CCC3CC4)s2)c1OC [Example 327],150
6,[2H]C([2H])([2H])NC(=O)c1nnc(NC(=O)C2CC2)cc1Nc1cccc(-c2ccn(CC(=O)NCCOC)n2)c1OC [Example 471],1590
7,[2H]C([2H])([2H])NC(=O)c1nnc(NC(=O)C2CC2)cc1Nc1cccc(-c2nc(CNC(=O)CC#N)no2)c1OC [Example 148],1820
8,[2H]C([2H])([2H])NC(=O)c1nnc(NC(=O)C2CC2)cc1Nc1cccc(-c2noc(CN3CCN(C(=O)OC(C)(C)C)CC3)n2)c1OC [Example 34],1010
9,COc1c(Nc2cc(NC(=O)C3CC3)ncc2C(N)=O)cccc1-c1cnn(CCNC(=O)OC(C)(C)C)n1 [Example 444],2130
10,[2H]C([2H])([2H])NC(=O)c1nnc(NC(=O)C2CC2)cc1Nc1cccc(-c2ncc(CNS(C)(=O)=O)s2)c1OC [Example 265],530
11,[2H]C([2H])([2H])NC(=O)c1nnc(NC(=O)C2CC2)cc1Nc1cccc(-c2noc(C(=O)N3CCOCC3)n2)c1OC [Example 16],560
12,[2H]C([2H])([2H])NC(=O)c1nnc(NC(=O)C2CC2)cc1Nc1cccc(-c2nc([C@@H](C)NC(=O)CC)no2)c1OC [Example 196],1180
13,[2H]C([2H])([2H])NC(=O)c1nnc(NC(=O)C2CC2)cc1Nc1cccc(-c2cc(C(=O)N(C)CC(O)CO)n(C)n2)c1OC (stereo not drawn) [Example 520],770
14,[2H]C([2H])([2H])NC(=O)c1cnc(NC(=O)C2CC2)cc1Nc1cccc(-c2cc(C(=O)N3CCS(=O)(=O)CC3)n(C)n2)c1OC [Example 488],530
15,[2H]C([2H])([2H])NC(=O)c1nnc(NC(=O)C2CC2)cc1Nc1cccc(-c2nc(CC(=O)NCCOC)no2)c1OC [Example 176],450

# Continued by falling IC50, values first:
row,IC50 [nM],Structure (SMILES)
1,200,[2H]C([2H])([2H])NC(=O)c1nnc(NC(=O)C2CC2)cc1Nc1cccc(-c2cc(C(=O)N3CCC(N(C)C)CC3)n(C)n2)c1OC [Example 529]
2,180,[2H]C([2H])([2H])NC(=O)c1nnc(NC(=O)C2CC2)cc1Nc1cccc(-c2ncc(C(=O)NCCNC(=O)CC)s2)c1OC [Example 240]
3,180,COCCN1CCN(Cc2cnc(-c3cccc(Nc4cc(NC(=O)C5CC5)nnc4C(N)=O)c3OC)s2)CC1 [Example 399]
4,170,[2H]C([2H])([2H])NC(=O)c1nnc(NC(=O)C2CC2)cc1Nc1cccc(-c2noc(C3(O)CC3)n2)c1OC [Example 74]
5,160,[2H]C([2H])([2H])NC(=O)c1nnc(NC(=O)C2CC2)cc1Nc1cccc(-c2ncc(C(=O)NCC)s2)c1OC [Example 272]
6,130,[2H]C([2H])([2H])NC(=O)c1nnc(NC(=O)C2CC2)cc1Nc1cccc(-c2ccn(CCN)n2)c1OC [Example 465]
7,130,[2H]C([2H])([2H])NC(=O)c1nnc(Nc2cnn(C)n2)cc1Nc1cccc(-c2ncc(C(=O)N(C)C)s2)c1OC [Example 381]
8,120,[2H]C([2H])([2H])NC(=O)c1nnc(NC(=O)C2CC2)cc1Nc1cccc(-c2cc(C(=O)N(C)CC)n(C)n2)c1OC [Example 539]
9,110,[2H]C([2H])([2H])NC(=O)c1nnc(NC(=O)C2CC2)cc1Nc1cccc(-c2nc(CN3CCN(C(=O)CC#N)CC3)no2)c1OC [Example 134]
10,100,[2H]C([2H])([2H])NC(=O)c1nnc(NC(=O)C2CC2)cc1Nc1cc(F)cc(-c2cc(C(=O)N3CCN(CCO)CC3)n(C)n2)c1OC [Example 484]
11,100,[2H]C([2H])([2H])NC(=O)c1nnc(NC(=O)C2CC2)cc1Nc1cccc(-c2ncc(C(=O)N3CCOCC3)s2)c1OC [Example 268]
12,80,[2H]C([2H])([2H])NC(=O)c1nnc(NC(=O)C2CC2)cc1Nc1cccc(-c2ncc(C(=O)NCCN3CCN(C)CC3)s2)c1OC [Example 322]
13,80,[2H]C([2H])([2H])NC(=O)c1nnc(NC(=O)C2CC2)cc1Nc1cccc(-c2noc(COC)n2)c1OC [Example 72]
14,60,[2H]C([2H])([2H])NC(=O)c1nnc(NC(=O)C2CC2)cc1Nc1cc(F)cc(-c2cc(C(=O)N(C)C)n(C)n2)c1OC [Example 495]
15,60,[2H]C([2H])([2H])NC(=O)c1nnc(NC(=O)C2CC2)cc1Nc1cccc(-c2cc(C(=O)N3CCN(C(C)C)CC3)n(C)n2)c1OC [Example 531]
16,60,[2H]C([2H])([2H])NC(=O)c1nnc(NC(=O)C2CC2)cc1Nc1cccc(-c2cc(C(=O)N3CCN(CCO)CC3)n(C)n2)c1OC [Example 476]
17,60,COc1c(Nc2cc(NC(=O)C3CC3)nnc2C(N)=O)cccc1-c1noc(CN(C(C)C)S(C)(=O)=O)n1 [Example 61]
18,60,[2H]C([2H])([2H])NC(=O)c1nnc(NC(=O)C2CC2)cc1Nc1cccc(-c2nc(C)c(C(=O)N(C)C)s2)c1OC [Example 367]
19,50,[2H]C([2H])([2H])NC(=O)c1cnc(Nc2ccc(OC)nn2)cc1Nc1cc(F)cc(-c2cc(C(=O)N(C)C)n(C)n2)c1OC [Example 551]
20,50,[2H]C([2H])([2H])NC(=O)c1nnc(NC(=O)C2CC2)cc1Nc1cccc(-c2ncc(C(=O)N3CC(C)(C)C3)s2)c1OC [Example 320]
21,50,[2H]C([2H])([2H])NC(=O)c1nnc(NC(=O)C2CC2)cc1Nc1cccc(-c2ncc(C(=O)N3CC4CN(C)CC4C3)s2)c1OC (stereo not drawn) [Example 274]
22,40,[2H]C([2H])([2H])NC(=O)c1nnc(Nc2ccc(C)nn2)cc1Nc1cccc(-c2ncc(C(=O)N(C)C)s2)c1OC [Example 384]
23,30,[2H]C([2H])([2H])NC(=O)c1nnc(NC(=O)C2CC2)cc1Nc1cccc(-c2ncc(C(=O)NC3CCC(N(C)C)CC3)s2)c1OC (stereo not drawn) [Example 307]
24,30,[2H]C([2H])([2H])NC(=O)c1nnc(NC(=O)C2CC2)cc1Nc1cccc(-c2noc(CN3CCCS3(=O)=O)n2)c1OC [Example 76]
25,23,COc1c(Nc2cc(NC(=O)C3CC3)nnc2C(N)=O)cccc1-c1noc(CN2CCCS2(=O)=O)n1 [Example 68]
26,11,COc1c(Nc2cc(NC(=O)C3CC3)nnc2C(N)=O)cccc1-c1noc(CN(C)S(=O)(=O)C(C)C)n1 [Example 58]
